Measured values taken from patent EP4631938A1, “NITROGEN-CONTAINING HETEROCYCLE WITH SEROTONIN RECEPTOR-BINDING ACTIVITY AND CARBOCYCLIC DERIVATIVE” (Shionogi & Co., Ltd, priority 2022, dated 2024).
Like-named read-outs stand apart in the source and are kept apart here.

How the values were obtained:
[1] = target: T1, human recombinant 5-HT2A receptor (Homo sapiens, UniProt P28223); assay: Test Example 1-2: 5-HT2A receptor binding inhibition test ([3H]-Ketanserin; non-specific ligand Ketanserin)
T1 construct: expressed in transfected cells; host or cells: Jump-In HEK cells (membrane preparation)
How it was run: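 Ki values were derived from dose-response inhibition of [3H]-ketanserin binding; nonspecific binding was set with 500 µmol/L ketanserin, and Kd was set for each membrane lot from Scatchard saturation plots. Incubation lasted 1.5 h at room temperature (25 °C). Bound radioligand was harvested on Tris-HCl (pH 7.4)-presoaked filters and counted.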

[2] = target: T2, human recombinant 5-HT2C receptor (Homo sapiens, UniProt P28335); assay: Test Example 2-2: 5-HT2C receptor binding inhibition test ([3H]-Mesulergine; non-specific ligand Ketanserin); conditions: non-specific binding with 500 µmol/L Ketanserin, 37°C, 2 hours
T2 construct: expressed in transfected cells; host or cells: Jump-In HEK cells (membrane preparation)
T2 sequence (P28335 33-458): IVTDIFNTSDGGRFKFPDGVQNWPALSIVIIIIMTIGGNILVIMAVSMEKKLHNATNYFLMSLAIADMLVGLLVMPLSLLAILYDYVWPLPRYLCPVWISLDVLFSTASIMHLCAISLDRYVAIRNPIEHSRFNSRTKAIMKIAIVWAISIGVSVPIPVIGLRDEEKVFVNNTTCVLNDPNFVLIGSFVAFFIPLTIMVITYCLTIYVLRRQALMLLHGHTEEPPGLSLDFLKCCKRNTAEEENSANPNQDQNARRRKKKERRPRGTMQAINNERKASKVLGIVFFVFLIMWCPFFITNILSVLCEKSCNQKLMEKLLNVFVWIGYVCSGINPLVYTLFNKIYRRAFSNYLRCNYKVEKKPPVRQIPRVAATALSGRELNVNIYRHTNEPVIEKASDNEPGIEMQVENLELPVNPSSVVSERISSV
Protocol: The Kd value is calculated when the lot of the cell membrane is changed. 1 mmol/L non-specific binding calculating compound dissolved in DMSO or DMSO is previously dispensed to the microplate by 0.5 µL, and the cell membrane is diluted with an Assay buffer. The radioactive ligand solution is diluted step by step, and counts are checked with a liquid scintillator. The Assay buffer containing diluted cell membranes is dispensed by 50 µL/well into the microplate. The radioactive ligand solution is then dispensed by 50 µL/well into the microplate and the plate is sealed. The microplate is allowed to stand at 37°C for 2 hours. During this time, 50 mmol/L Tris-HCl (pH 7.4) is dispensed by 50 µL/well into the UniFilter plate and allowed to stand at 4°C for 1 hour or longer. Thereafter, filtration is performed with a Cell Harvester (PerkinElmer). The radioactive ligand solution is dispensed by 10 µL/well into empty wells of the UniFilter plate. After drying the UniFilter plate at room temperature, MicroScinti20 is dispensed by 50 µL/well into the UniFilter plate, and the plate is sealed. UniFilter plate is allowed to stand at room temperature overnight. The radioactivity of [^3H]-Mesulergine bound to the 5-HT2C receptor is measured using Microbeta2 (PerkinElmer) at a measurement time of 1 min/well. The Saturation curve is drawn from the measured value, and the Kd value is calculated from the slope of the Scatchard Plot.
A compound solution dissolved in DMSO is dispensed to a microplate by 0.5 µL, and a cell membrane and a hot ligand are each diluted with an Assay buffer. The Assay buffer containing diluted cell membrane is then dispensed by 50 µL/well into the microplate. The radioactive ligand solution is then dispensed by 50 µL/well into the microplate and the plate is sealed. The microplate is then allowed to stand at 37°C for 2 hours. During this time, 50 mmol/L Tris-HCl (pH 7.4) is dispensed by 50 µL/well into the UniFilter plate and allowed to stand at 4°C for 1 hour or longer. Thereafter, filtration is performed with a Cell Harvester (PerkinElmer). After drying the UniFilter plate at room temperature, MicroScinti20 is dispensed by 50 µL/well into the UniFilter plate, and the plate is sealed. UniFilter plate is allowed to stand at room temperature overnight. The radioactivity of [^3H]-Mesulergine bound to the 5-HT2C receptor is measured using Microbeta2 (PerkinElmer) at a measurement time of 1 min/well. Non-specific binding is calculated from the radioactivity of [^3H]-Mesulergine in the presence of 500 µmol/L Ketanserin of unlabeled ligand, and total binding is calculated from the radioactivity of [^3H]-Mesulergine in the absence of the compound of the present invention (Vehicle). Finally, the Ki value is calculated from the dose-response curve.
(The binding activity of the compound according to the present invention is calculated from the following binding inhibition rate (%).) Inhibition rate (%) = [1−(c−a)/(b−a)] × 100 [formula] • a; average cpm of non-specific binding • b; average cpm of total binding • c; cpm in the presence of the test compound
The compounds of the present invention were tested essentially as described above.

[3] = [3H]-Ketanserin, non-specific binding with 500 µmol/L Ketanserin, room temperature (25°C), 1.5 hours, read-out: h 5-HT2A Ki

T1 sequence (P28223 whole entry): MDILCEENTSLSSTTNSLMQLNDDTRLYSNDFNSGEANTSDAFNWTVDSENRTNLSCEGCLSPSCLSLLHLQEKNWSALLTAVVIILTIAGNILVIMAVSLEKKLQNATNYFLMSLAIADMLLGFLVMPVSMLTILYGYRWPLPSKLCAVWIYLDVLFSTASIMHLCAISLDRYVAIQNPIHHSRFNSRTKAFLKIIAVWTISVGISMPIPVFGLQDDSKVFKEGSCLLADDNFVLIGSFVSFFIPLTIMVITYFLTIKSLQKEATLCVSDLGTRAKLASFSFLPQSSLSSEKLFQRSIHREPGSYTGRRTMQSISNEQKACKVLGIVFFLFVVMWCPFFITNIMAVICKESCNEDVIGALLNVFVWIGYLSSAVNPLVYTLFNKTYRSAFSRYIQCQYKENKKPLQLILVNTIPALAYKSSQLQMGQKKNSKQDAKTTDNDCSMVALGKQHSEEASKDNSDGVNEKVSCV

SMILES | Ki [1, 3] | Ki [2] | Ki [1]
Cc1noc(C)c1-c1cc(Nc2ncc(C(F)(F)F)cc2F)ccc1OCCO [Compound I-010] | 0.246 nM | 1.41 nM | 
OCCOc1ccc(Nc2ncc(C(F)(F)F)cc2F)cc1-c1ccncc1Cl [Compound I-011] | 0.133 nM | 4.55 nM | 
Cc1cnccc1-c1cc(Nc2ncc(C(F)(F)F)cc2F)ccc1OCCO [Compound I-012] | 0.272 nM | 6.43 nM | 
Cc1ncccc1-c1cc(Nc2ncc(C(F)(F)F)cc2F)ccc1OCCO [Compound I-013] | 0.332 nM | 7.21 nM | 
COc1ncccc1-c1cc(Nc2ncc(C(F)(F)F)cc2F)ccc1OCCO [Compound I-014] | 0.413 nM | 8.88 nM | 
Cn1ncc(Cl)c1-c1cc(Nc2ncc(C(F)(F)F)cc2F)ccc1OCCO [Compound I-015] | 0.195 nM | 0.248 nM | 
Cn1ncc(Br)c1-c1cc(Nc2ncc(F)cc2F)ccc1OCCO [Compound I-016] | 0.284 nM | 0.699 nM | 
Cn1ncc(Br)c1-c1cc(Nc2ncc(Cl)cc2F)ccc1OCCO [Compound I-017] | 0.266 nM | 0.415 nM | 
Cn1ncc(F)c1-c1cc(Nc2ncc(C(F)(F)F)cc2F)ccc1OCCO [Compound I-018] | 0.235 nM | 1.89 nM | 
OCCOc1ccc(Nc2ncc(C(F)(F)F)cc2F)cc1-c1c(F)cccc1Cl [Compound I-019] | 0.548 nM | 3.12 nM | 
Cc1cccc(F)c1-c1cc(Nc2ncc(C(F)(F)F)cc2F)ccc1OCCO [Compound I-020] |  | 5.38 nM | 1.12 nM
Cc1cc(C)c(-c2cc(Nc3ncc(C(F)(F)F)cc3F)ccc2OCCO)c(C)c1 [Compound I-021] | 0.722 nM | 4.1 nM | 
Cc1nn(C)c(C)c1-c1cc(Nc2ncc(C(F)(F)F)cc2F)ccc1OCCO [Compound I-022] | 0.428 nM | 48.4 nM | 
Cc1n[nH]c(C)c1-c1cc(Nc2ncc(C(F)(F)F)cc2F)ccc1OCCO [Compound I-023] | 0.246 nM | 3.62 nM | 
Cc1ccncc1-c1cc(Nc2ncc(C(F)(F)F)cc2F)ccc1OCCO [Compound I-024] | 0.607 nM | 7.35 nM | 
Cc1ccc(-c2cc(Nc3ncc(C(F)(F)F)cc3F)ccc2OCCO)c(C)n1 [Compound I-025] | 0.25 nM | 3.7 nM | 
OCCOc1ccc(Nc2ncc(C(F)(F)F)cc2F)cc1-c1ccnc(F)c1Cl [Compound I-026] | 0.894 nM | 7.89 nM | 
Cn1cnc(Br)c1-c1cc(Nc2ncc(C(F)(F)F)cc2F)ccc1OCCO [Compound I-027] | 0.292 nM | 0.266 nM | 
Cc1cnc(Nc2ccc(OCCO)c(-c3c(Br)cnn3C)c2)s1 [Compound I-028] | 0.209 nM | 4.96 nM | 
Cn1ncc(Br)c1-c1cc(Nc2nc3ccccc3s2)ccc1OCCO [Compound I-029] | 0.286 nM | 0.636 nM | 
Cc1cncc(C)c1-c1cc(Nc2ncc(C(F)(F)F)cc2F)ccc1OCCO [Compound I-030] | 0.31 nM | 0.881 nM | 
Cn1cnc(Br)c1-c1cc(Nc2ncc(F)cc2F)ccc1OCCO [Compound I-032] | 0.734 nM | 8.32 nM | 
Cc1nnn(C)c1-c1cc(Nc2ncc(C(F)(F)F)cc2F)ccc1OCCO [Compound I-033] | 0.376 nM | 3.43 nM | 
Cc1cccc(C)c1-c1cc(Nc2ncc(C(F)(F)F)cc2F)ccc1OCCO [Compound I-034] | 0.77 nM | 3.57 nM | 
Cc1cnn(C)c1-c1cc(Nc2ncc(C(F)(F)F)cc2F)c(Oc2ccn(C)n2)cc1OCCO [Compound I-035] | 2.54 nM | 2.35 nM | 

SMILES | Ki [1, 3] | Ki [2] | Ki [1]
Cn1ncc(Br)c1-c1cc(Nc2nc(C(F)(F)F)cs2)ccc1OCCO [Compound I-036] | 0.344 nM | 1.92 nM | 
Cn1ncc(Br)c1-c1cc(Nc2ncc(C#N)s2)ccc1OCCO [Compound I-037] | 0.289 nM | 1.4 nM | 
Cn1ncc(Br)c1-c1cc(Nc2ncc(C3CC3)s2)ccc1OCCO [Compound I-038] | 0.215 nM | 0.666 nM | 
Cn1ncc(Br)c1-c1cc(Nc2ncc(-c3ccccc3)s2)ccc1OCCO [Compound I-039] | 0.319 nM | 0.245 nM | 
Cn1ncc(Br)c1-c1cc(Nc2ncc(Cl)s2)ccc1OCCO [Compound I-040] | 0.175 nM | 1.16 nM | 
Cn1ncc(Br)c1-c1cc(Nc2nc3ccccc3o2)ccc1OCCO [Compound I-041] | 0.155 nM | 8.83 nM | 
Cn1ncc(Br)c1-c1cc(Nc2nc3ccccc3n2C)ccc1OCCO [Compound I-042] | 0.194 nM | 8.35 nM | 
Cn1ncc(Br)c1-c1cc(Nc2ncc(Br)cc2F)ccc1OCCO [Compound I-043] | 0.188 nM | 0.165 nM | 
Cn1ncc(Br)c1-c1cc(Nc2ncc(C#N)cc2F)ccc1OCCO [Compound I-044] | 0.626 nM | 15.1 nM | 
Cn1ncc(Br)c1-c1cc(Nc2ncccc2F)ccc1OCCO [Compound I-045] | 0.235 nM | 3.77 nM | 
COC(=O)c1cnc(Nc2ccc(OCCO)c(-c3c(Br)cnn3C)c2)c(F)c1 [Compound I-046] | 0.318 nM | 1.33 nM | 
Cn1ncc(Br)c1-c1cc(Nc2cc(C(F)(F)F)ccn2)ccc1OCCO [Compound I-047] | 0.207 nM | 4.26 nM | 
Cn1ncc(Br)c1-c1cc(Nc2ccc(C3CC3)cn2)ccc1OCCO [Compound I-048] | 0.163 nM | 0.313 nM | 
Cc1cnc(Nc2ccc(OCCO)c(-c3c(Br)cnn3C)c2)c(F)c1 [Compound I-049] | 0.168 nM | 0.641 nM | 
Cc1ncnc(C)c1-c1cc(Nc2ncc(C(F)(F)F)cc2F)ccc1OCCO [Compound I-050] | 0.395 nM | 1.69 nM | 
Cn1ncc(C#N)c1-c1cc(Nc2ncc(Cl)cc2F)ccc1OCCO [Compound I-051] | 0.318 nM | 2.6 nM | 
Cn1ncc(C(F)(F)F)c1-c1cc(Nc2ncc(C(F)(F)F)cc2F)ccc1OCCO [Compound I-052] | 0.389 nM | 0.368 nM | 
C=Cc1cnn(C)c1-c1cc(Nc2ncc(C(F)(F)F)cc2F)ccc1OCCO [Compound I-053] | 0.291 nM | 1.25 nM | 
CCc1cnn(C)c1-c1cc(Nc2ncc(C(F)(F)F)cc2F)ccc1OCCO [Compound I-055] | 0.396 nM | 0.745 nM | 
Cc1ncnc(C)c1-c1cc(Nc2ncc(Cl)cc2F)ccc1OCCO [Compound I-057] | 0.386 nM | 5.3 nM | 
Cn1nccc1-c1cc(Nc2ncc(C(F)(F)F)cc2F)ncc1OCCO [Compound I-059] | 0.45 nM | 30 nM | 
Cn1ncc(Br)c1-c1cc(Nc2ccc(OC(F)F)cn2)ccc1OCCO [Compound I-060] | 0.158 nM | 0.184 nM | 
Cn1ncc(Br)c1-c1cc(Nc2ccc(OC(F)(F)F)cc2)ccc1OCCO [Compound I-061] | 0.254 nM | 1.31 nM | 
CCn1ncc(Br)c1-c1cc(Nc2ncc(C(F)(F)F)cc2F)ccc1OCCO [Compound I-066] | 0.222 nM | 0.17 nM | 
OCCOc1ccc(Nc2ncc(C(F)(F)F)cc2F)cc1-c1c(Br)cnn1C1CC1 [Compound I-067] | 0.403 nM | 0.196 nM | 
